These results are taken from patent US20090047244A1, “MACROCYCLIC SERINE PROTEASE INHIBITORS I” (Idenix Pharmaceuticals, Inc., priority 2007, published 2009).

For data set [1] the following is noted: rcm bond.
Data set [2] is described as follows: Cytotoxicity evaluation (Cell Titer 96 AQueous One Solution Cell Proliferation Assay). The following applies: human; GS4.1 cells, cellular viability. The class given is cell-based. How it is done:
For cytotoxicity evaluation, GS4.1 cells were treated with compounds as described above and cellular viability was monitored using the Cell Titer 96 AQueous One Solution Cell Proliferation Assay (Promega). CC50 values were determined from the % cytotoxicity versus concentration data with Tecan Magellan software as described above.

The test system of data set [3] is Huh-7 cells containing HCV Con1 subgenomic replicon (GS4.1 cells). Put plainly: HCV Replicon Assay (NS4A ELISA). Type of data set: cell-based. The following applies: Hepatitis C virus, 72 hr, NS4A protein expression by ELISA. Here is the method: General procedure: Huh-7 cells containing HCV Con1 subgenomic replicon (GS4.1 cells) were grown in Dulbecco's Modified Eagle Medium (DMEM) supplemented with 10% fetal bovine serum (FBS), 2 mM L-glutamine, 110 mg/L sodium pyruvate, 1X non-essential amino acids, 100 U/mL penicillin-streptomycin, and 0.5 mg/mL G418 (Invitrogen). For dose-response testing, the cells were seeded in 96-well plates at 7.5×10^3 cells/well in a volume of 50 μL, and incubated at 37° C./5% CO2. Three hours after plating, 50 μL of ten 2-fold serial dilutions of compounds (highest concentration, 75 μM) were added, and cell cultures were incubated at 37° C./5% CO2 in the presence of 0.5% DMSO. Alternatively, compounds were tested at a single concentration of 15 μM. In all cases, Huh-7 cells lacking the HCV replicon served as negative control. The cells were incubated in the presence of compounds for 72 hr after which they were monitored for expression of the NS4A protein by enzyme-linked immunosorbent assay (ELISA). For this, the plates were then fixed for 1 min with acetone/methanol (1:1, v/v), washed twice with phosphate-buffered saline (PBS), 0.1% Tween 20, blocked for 1 hr at room temperature with TNE buffer containing 10% FBS and then incubated for 2 hr at 37° C. with the anti-NS4A mouse monoclonal antibody A-236 (ViroGen) diluted in the same buffer. After washing three times with PBS, 0.1% Tween 20, the cells were incubated 1 hr at 37° C. with anti-mouse immunoglobulin G-peroxidase conjugate in TNE, 10% FBS. After washing as described above, the reaction was developed with O-phenylenediamine (Zymed). The reaction was stopped after 30 min with 2 N H2SO4, and absorbance was read at 492 nm using Sunrise Tecan spectrophotometer. EC50 values were determined from the % inhibition versus concentration data using a sigmoidal non-linear regression analysis based on four parameters with Tecan Magellan software. When screening at a single concentration, the results were expressed as % inhibition at 15 μM.
In general terms: A replicon is a self-replicating genome or part of one, used to study replication in cells.

In another data set the target is T1, HCV NS3-NS4A protease (Hepatitis C virus genotype 1a, UniProt P27958).
T1 construct: made in house
T1 sequence (P27958 1027-1208): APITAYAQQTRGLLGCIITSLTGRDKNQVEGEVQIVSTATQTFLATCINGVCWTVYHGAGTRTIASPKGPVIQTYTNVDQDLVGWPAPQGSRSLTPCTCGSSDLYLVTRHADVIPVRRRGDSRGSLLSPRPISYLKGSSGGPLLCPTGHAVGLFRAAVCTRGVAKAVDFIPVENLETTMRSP
The data set is described as follows: HCV Protease Assay (SensoLyte 620 HCV Protease Assay kit). Type of data set: biochemical. As to conditions: 1.2 nM HCV NS3-NS4A protease, 5% DMSO, 60 min at room temperature. How it is done:
General procedure: Measurement of the inhibitory effect of compounds on HCV protease activity was performed with the SensoLyte™ 620 HCV Protease Assay kit from AnaSpec, Inc. (San Jose, Calif.) under conditions described by the supplier using 1.2 nM HCV NS3-NS4A protease, which was obtained according to Taremi et al. (Protein Science, 1998, 7, 2143-2149). The compounds were tested at a variety of concentrations in assay buffer containing a final DMSO concentration of 5%. Reactions were allowed to proceed for 60 min at room temperature and fluorescence measurements were recorded with a Tecan Infinity Spectrofluorimeter. The IC50 values were determined from the percent inhibition versus concentration data using a sigmoidal non-linear regression analysis based on four parameters with Tecan Magellan software.

The structures appear in SMILES notation. Like-named read-outs stand apart in the source and are kept apart here.

On to `CCOC(=O)[C@@]12C[C@H]1/C=C\CCCCN(C)C(=O)N[C@@H](CCO[Si](C)(C)C(C)(C)C)C(=O)N2`, for which, in data set [1] (from C=CCCCCN(C)C(=O)N[C@@H](CCO[Si](C)(C)C(C)(C)C)C(=O)N[C@]1(C(=O)OCC)C[C@H]1C=C, Hoveyda-Grubbs 1st generation, DCM, 1.96 mM, 40.0 °C, 24.0 h), the ring closure, yield of all isomers amounted to 50%.
For `CCOC(=O)[C@@]12C[C@H]1C=CCCCCN(C)C(=O)N[C@@H](CCOc1cc(-c3ccccc3)nc3cc(OC)ccc13)C(=O)N2`, the ring closure, yield of all isomers in data set [1] (from C=CCCCCN(C)C(=O)N[C@@H](CCOc1cc(-c2ccccc2)nc2cc(OC)ccc12)C(=O)N[C@]1(C(=O)OCC)C[C@H]1C=C, Hoveyda-Grubbs 1st generation, DCM, 1.6 mM, 40.0 °C, 16.0 h) was 22%.
`CCOC(=O)[C@@]12C[C@H]1C=CCCCCCN(C)C(=O)N[C@@H](CCOc1cc(-c3ccccc3)nc3cc(OC)ccc13)C(=O)N2`: the ring closure, yield of all isomers in data set [1] (from C=CCCCCCN(C)C(=O)N[C@@H](CCOc1cc(-c2ccccc2)nc2cc(OC)ccc12)C(=O)N[C@]1(C(=O)OCC)C[C@H]1C=C, Hoveyda-Grubbs 1st generation, DCM, 1.6 mM, 40.0 °C, 16.0 h) was found to be 64%.
In the case of `CCOC(=O)[C@@]12C[C@H]1C=CCCCCN(C)C(=O)N[C@@H](CO[Si](C)(C)C(C)(C)C)C(=O)N2`, the ring closure, yield of all isomers in data set [1] (from C=CCCCCN(C)C(=O)N[C@@H](CO[Si](C)(C)C(C)(C)C)C(=O)N[C@]1(C(=O)OCC)C[C@H]1C=C, Hoveyda-Grubbs 1st generation, 1,2-dichloroethane, 9.9 mM, 70.0 °C, 16.0 h) turned out to be 48.1%.
Consider `CC(=O)OCC[C@@H]1NC(=O)N(C)CCCC/C=C\[C@@H]2C[C@@]2(C(=O)NS(=O)(=O)C2CC2)NC1=O`, for which the CC50 (as a rule, the concentration at which the toxic effect on the cells reaches its halfway point) in data set [2] was > 1000 µM. Besides, the EC50 (usually the concentration giving half of the maximal effect) in data set [3] was > 1000 µM. Moreover, the IC50 (commonly the midpoint of a concentration-inhibition curve) on HCV NS3-NS4A protease fell in the range of 0.1 to 10 µM.
`COc1ccc2c(OCC[C@@H]3NC(=O)N(C)CCCC/C=C\[C@@H]4C[C@@]4(C(=O)OS(=O)(=O)C4(C)CC4)NC3=O)cc(-n3ccc(C(F)(F)F)n3)nc2c1C`: in data set [2], the CC50 is > 1000 µM. In data set [3], the EC50 is < 0.1 µM. At HCV NS3-NS4A protease, the IC50 is < 0.1 µM.
In the case of `C#CC1(S(=O)(=O)NC(=O)C23CC2/C=C\CCCCN(C)C(=O)NC(CCOc2cc(-c4nc(C(C)C)cs4)nc4c(Cl)c(OC)ccc24)C(=O)N3)CC1` (centres unmarked), the CC50 in data set [2] is > 1000 µM. In data set [3], the EC50 was < 0.1 µM. Also, on HCV NS3-NS4A protease, the IC50 was < 0.1 µM.
As for `COc1ccc2c(OCC[C@@H]3NC(=O)N(C)CCCC/C=C\[C@@H]4C[C@@]4(C(=O)NS(=O)(=O)C4CC4)NC3=O)cc(-c3nc(C(C)C)cs3)nc2c1F`, the CC50 in data set [2] was > 1000 µM. Besides, the EC50 in data set [3] was 10 to 1000 µM. Further, the IC50 on HCV NS3-NS4A protease is < 0.1 µM.
The matching figures for `COc1ccc2c(OCC[C@@H]3NC(=O)N(C)CCCC/C=C\[C@@H]4C[C@@]4(C(=O)NS(=O)(=O)C4CC4)NC3=O)cc(-c3nc(C(C)C)cs3)nc2c1Cl`: > 1000 µM, < 0.1 µM and < 0.1 µM.
Regarding `COc1ccc2c(OCC[C@@H]3NC(=O)N(C)CCCCC=C[C@@H]4C[C@@]4(C(=O)NS(=O)(=O)C4CC4)NC3=O)cc(-c3ccccc3)nc2c1`, the ring closure, yield of all isomers in data set [1] (from C=CCCCCN(C)C(=O)N[C@@H](CCOc1cc(-c2ccccc2)nc2cc(OC)ccc12)C(=O)N[C@]1(C(=O)NS(=O)(=O)C2CC2)C[C@H]1C=C, Hoveyda-Grubbs 2nd generation, DCM, 1.5 mM, 100.0 °C, 1.0 h) turned out to be 7.9%.
